One series concerns the target T1, PamNTT1 (Candidatus Protochlamydia amoebophila, UniProt Q70GF7).
T1 construct: gene ntt1; full-length, N-terminal His tag (pET16b)
T1 sequence (Q70GF7 1-513): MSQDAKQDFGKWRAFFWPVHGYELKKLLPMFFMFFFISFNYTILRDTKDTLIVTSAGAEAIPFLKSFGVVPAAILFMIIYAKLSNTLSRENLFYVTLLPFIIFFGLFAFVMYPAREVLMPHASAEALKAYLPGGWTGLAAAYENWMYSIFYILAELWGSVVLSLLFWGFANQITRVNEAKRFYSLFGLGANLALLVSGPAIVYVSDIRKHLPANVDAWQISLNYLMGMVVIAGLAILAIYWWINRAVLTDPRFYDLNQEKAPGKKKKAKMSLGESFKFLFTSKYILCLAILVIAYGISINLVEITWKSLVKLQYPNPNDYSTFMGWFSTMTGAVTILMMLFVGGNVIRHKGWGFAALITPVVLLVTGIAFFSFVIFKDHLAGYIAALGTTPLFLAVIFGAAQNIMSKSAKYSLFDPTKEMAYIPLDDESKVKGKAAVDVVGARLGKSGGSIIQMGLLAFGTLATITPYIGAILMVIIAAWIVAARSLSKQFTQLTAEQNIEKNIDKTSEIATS
Briefly: [α[…]]ADP uptake into proteoliposomes, anion exchange separation. Type of series: biochemical. The following applies: apparent; ADP import in homo-exchange with 10 mM luminal ADP; pH 7.5; 30 °C; labelled compound.

Substrate in the series “purified protein”: Nc1ncnc2c1ncn2[C@@H]1O[C@H](COP(=O)(O)OP(=O)(O)OP(=O)(O)O)[C@@H](O)[C@H]1O
The experiment in a line: purified protein. It counts as biochemical, Candidatus Protochlamydia amoebophila. The following applies: apparent, ATP import in exchange with 10 mM luminal ADP, pH 7.5, 30 °C, labelled compound.

Take `Nc1ncnc2c1ncn2[C@@H]1O[C@H](COP(=O)(O)OP(=O)(O)O)[C@@H](O)[C@H]1O` [ADP]: the “K M” value at PamNTT1 is “Approximately equivalent K M values were estimated for the ADPim/ADPex and ATPim/ATPex homo-exchange mode”.

B1: PamNTT1 (Candidatus Protochlamydia amoebophila UWE25) (protein)
chain: T1 sequence (Q70GF7 1-513)
notes: full-length, N-terminal His tag (pET16b)
As for B1, the Km (in general, the concentration of substrate that gives half-maximal velocity) in “purified protein” is 17 µM.

The values are drawn from publication PMC1951785, “Enlightening Energy Parasitism by Analysis of an ATP/ADP Transporter from Chlamydiae” (PLoS Biology, 2007).
